{
  "source": "patent US20100028402A1",
  "about": "“NANOPARTICLE-BASED ANTICOAGULANT” (priority 2006, published 2010)",
  "key": {"[1]": {"tested_on": "platelets (human platelet-rich plasma)", "assay": "Platelet aggregation assay, with and without collagen", "assay_type": "cell-based", "procedure": "Platelet Aggregation Assay. […] The concentration of the nanoparticle was determined by considering the following parameters: i) the solubility of the nanoparticle in a biocompatible buffer; ii) maintaining the pH within a physiological range (pH 7±0.5); iii) availability of nanoparticle; and iv) stability of the nanoparticle. […] The assay required 150 μL of test material.\nPlatelet-rich plasma (PRP) was obtained from fresh pooled human whole blood by spinning freshly drawn blood for 8 minutes at 200 g. PRP was then pooled from at least 3 different donors. It is to be noted that during phlebotomy, the first 2 mLs of blood was discarded. Further, PRP was prepared as soon as possible from the time of obtaining the blood sample and no longer than 1 hour after blood collection. PRP was kept at room temperature and was used within 4 hours of its isolation. Exposure of either the blood or PRP to cold temperatures (<20° C.) was avoided because such temperatures induce platelet aggregations.\nThree test tubes for the test sample, two tubes for the positive control and two tubes for the negative control were prepared. Twenty-five microliters of the test sample, positive control or negative control were added to the respective tubes. These samples provided data on the ability of the test nanoparticle to induced platelet aggregation. A second set of tubes were prepared for test-particles plus collagen. These set of tubes provided data on the ability of test-particles to interfere with platelet aggregation caused by collagen. For this set of studies, 25 μL of the positive control and 25 μL of the test nanoparticle was added to each “test-particles plus collagen” tube. Further, 50 μL of the negative control was added to each negative control tube and 25 μL of the positive control and 25 μL of RPMI was added to each positive control tube. In addition, one control tube with 100 μL of phosphate buffer saline (PBS) or RPMI and 25 μL of the nanoparticles was prepared to determine any potential particle interference with instrument counting procedure.\nPRP was added to the appropriate tubes, samples were briefly vortexed and then incubated with control or test sample for 15 minutes at a nominal temperature of 37° C. After the incubation period, 10 mL of Isoton II diluent was added into blood cell counter vials. Two vials were prepared for each sample replicate. Twenty microliters of PRP treated with positive control, negative control or test-nanoparticle was then added to the each vial. Vials were covered and gently inverted to mix the diluted samples. PRP was analyzed by a Z2 Particle Count and Size Analyzer (Beckman Coulter) to determine the number of active platelets. Percent Coefficient of Variation (% CV) was equal to the standard deviation divided by the mean multiplied by 100. Platelet count=(5×RC)/100=# platelets×10^9/L. Further, percent platelet aggregation (% aggregation)=Control Platelet Count−Sample Platelet Count/Control Platelet Count×100). The percent coefficient of variation for each control and test sample was within 25%. […] Percent platelet aggregation above 20% was considered to be positive (for example, test-particle induces platelet aggregation)."}, "Nanoparticle dimension": {"assay": "Nanoparticle dimension", "assay_type": "physicochemical"}, "[2]": {"tested_on": "porcine proximal tubule epithelial cells (LLC-PK1)", "assay": "MTT and LDH cytotoxicity assays, kidney cells", "assay_type": "cell-based", "settings": "1.0 to 0.004 mg/mL", "procedure": "(§1) The cytotoxicity of AF1, AF3, C3, DF1 and NCL22 on porcine proximal tubule epithelial cells (LLC-PK1) was determined by a method that includes a 3-(4,5-Dimethyl-2-thiazolyl)-2,5-diphenyl-2H-tetrazolium bromide (MTT) reduction and lactate dehydrogenase (LDH) release assays. MTT that is a yellow water-soluble tetrazolium dye that is reduced by live cells to a water-insoluble purple formazan. The amount of formazan can be determined by solubilizing the formazan in DMSO and measuring it spectrophotometrically. Comparisons between the spectra of treated and untreated cells can give a relative estimation of cytotoxicity. (See, Alley et al. Cancer Res. 48: 589-60, 1988 which is hereby incorporated by reference in its entirety). The LDH assay is based upon LDH (a cytoplasmic enzyme that is released into the […] upon cell lysis) oxidizing lactate to pyruvate, pyruvate reacting with a tetrazolium salt INT to form formazan, and the water-soluble formazan dye being detected spectrophotometrically. Thus, the LDH assay is a measure of membrane integrity. […]\n(§2) Briefly, for assays employing porcine kidney epithelial cells, such cells were plated at […] in a 96 well plate. […] Cytotoxicity was then determined by MTT and LDH assays."}, "[3]": {"assay": "MTT and LDH cytotoxicity assays, kidney cells", "assay_type": "cell-based, porcine", "settings": "pig, LLC-PK1 porcine proximal tubule epithelial cells, treated 6, 24 or 48 hours, 1.0 to 0.004 mg/mL, read-out: LC50 (the source's name)", "procedure": "as §1, §2"}, "[4]": {"tested_on": "red blood cells (pooled normal human whole blood)", "assay": "Hemolysis assay", "assay_type": "cell-based", "excerpt": "Hemolysis Assay. This assay employs a protocol for quantitative colorimetric determination of hemoglobin in whole blood (total blood hemoglobin—TBH) and hemoglobin released into plasma (plasma free hemoglobin—PFH) when blood was exposed to nanoparticles. In brief, hemoglobin and its derivatives, except sulfhemoglobin, were oxidized to methemoglobin by ferricyanide in the presence of alkali. Cyanmethemoglobin (CMH) was formed from the methemoglobin by its reaction with cyanide (Drabkin's solution) and then detected by spectrophotometer set at 540 nm. The hemoglobin standard was used to build a standard curve covering the concentration range from 0.025 to 0.80 mg/mL and to prepare quality control samples at low (0.0625 mg/mL), mid (0.125 mg/mL) and high (0.625 mg/mL) concentrations to monitor assay performance. Required sample volume was 300 μL, e.g., 100 μL per test-replicate. The results expressed as percent of hemolysis were used to evaluate the acute in vitro hemolytic properties of nanoparticles.\nThe following reagents were used in the assay: cyanmethemoglobin (CMH) reagent, (StanBio, cat. # 0321-380); hemoglobin standard (StanBio, cat. # 0325-006); Ca/Mg free DPBS (Sigma, catalogue no: D8537); pooled normal human whole blood anti-coagulated with Li-heparin; poly-L-Lysine hydrobromide (MW 150 000-300 000, Sigma, cat #P1399); polyethylene glycol (av. MW 8 000, Sigma cat # P1458); and distilled water. It is contemplated that equivalent reagents from other vendors can be used.\nThe positive control was prepared by dissolving poly-L-Lysine powder to a final concentration of 1% (10 mg/mL) in sterile distilled water. […] Alternatively, 1% TritonX-100 in water was used as a positive control. […]\nWhole blood was collected in tubes containing Li-heparin as anti coagulant from at least three donors. […] The plate was then read by use of a plate reader at an absorbance of 540 nm to determine hemoglobin concentration. […] If calculated PFH concentration was below 1 mg/mL pooled whole blood was diluted with Ca^2+/Mg^2+ free DPBS to adjust total hemoglobin concentration to 10±2 mg/mL. […]"}, "[5]": {"tested_on": "murine bone marrow myeloid precursors", "assay": "CFU-GM assay (myelosuppression)", "settings": "FIG. 3"}},
  "data": [
    {"molecule": "CC(=O)Oc1ccccc1C(=O)O", "note": "[aspirin]", "values": [
      {"measurement": "effect on collagen-induced platelet aggregation", "setting": "[1]; 167 μg/mL, collagen 25 μg/mL, FIG. 5", "result": "significant reduction in collagen-induced platelet aggregation"},
      {"measurement": "dose dependence of inhibition of collagen-induced platelet aggregation", "setting": "[1]; 167, 33.4 and 16.7 μg/mL, collagen 25 μg/mL, FIG. 5", "result": "dose dependent"}
    ]},
    {"molecule": "O=C(O)C1(C(=O)O)C2c3ccc4c5c3-c3c6c7c8c9c3C53C(C(=O)O)(C(=O)O)C35C(=C4)Cc3cc4c(c-9c35)C83C(CC4)(CC7CC621)C3(C(=O)O)C(=O)O", "note": "(stereo not shown) [C3, C60(>C(COOH)2)3]", "values": [
      {"measurement": "collagen-induced platelet aggregation in presence of compound", "setting": "[1]; compound 200 μg/mL, collagen 20 μg/mL (collagen alone greater than 60%), FIG. 4", "result": "approximately 15%"},
      {"measurement": "dimension", "setting": "Nanoparticle dimension", "result": 1.57, "unit": "nm"},
      {"measurement": "toxicity to kidney cells", "setting": "[2]", "result": "minimally toxic"},
      {"measurement": "CC50", "setting": "[3]", "result": 207, "unit": "µg/mL"},
      {"measurement": "percent of hemolysis", "setting": "[4]; human, 3 h", "result": "less than 2%"},
      {"measurement": "protection of bone marrow cells from myelosuppression caused by cisplatin", "setting": "[5]; with cisplatin (50 μM)", "result": "none of the tested substituted fullerenes were able to protect the bone marrow cells"}
    ]},
    {"molecule": "Triton X-100", "values": [
      {"measurement": "hemolysis by positive control", "setting": "[4]", "result": "90±5", "unit": "%"},
      {"measurement": "hemolysis of the red blood cells", "setting": "[4]", "result": "greater than 80%"}
    ]},
    {"molecule": "collagen", "values": [
      {"measurement": "platelet aggregation induced", "setting": "[1]; collagen 20 μg/mL, FIG. 4", "result": "greater than 60%"},
      {"measurement": "platelet aggregation induced", "setting": "[1]; collagen 25 μg/mL, FIG. 5", "result": "greater than 80%"}
    ]},
    {"molecule": "N.N.[Cl][Pt][Cl]", "note": "[cisplatin]", "values": [
      {"measurement": "myelosuppressive effect", "setting": "[5]; positive control, 50 μM", "result": "myelosuppression caused by cisplatin treatment"}
    ]}
  ]
}
